Assay results as given in ChEMBL document CHEMBL3525960, “Role of catechol-O-methyltransferase in the disposition of luteolin in rats” (Drug Metab Dispos, 2011).

Assays:
[1] = AUC (0 to t) in Sprague-Dawley rat at 6.5 mg/kg, iv; format: ADME, organism-based; parameters: dose 6.5 mg/kg, route intravenous; conditions: plasma
[2] = AUC (0 to infinity) in Sprague-Dawley rat at 6.5 mg/kg, iv; format: ADME, organism-based; parameters: time infinity, dose 6.5 mg/kg, route intravenous; conditions: plasma
[3] = Mean residence time (0 to t) in Sprague-Dawley rat at 6.5 mg/kg, iv; format: ADME, organism-based; parameters: dose 6.5 mg/kg, route intravenous; conditions: in vivo
[4] = Mean residence time (0 to infinity) in Sprague-Dawley rat at 6.5 mg/kg, iv; format: ADME, organism-based; parameters: dose 6.5 mg/kg, route intravenous; conditions: in vivo
[5] = Half life in Sprague-Dawley rat at 6.5 mg/kg, iv; format: ADME, organism-based; parameters: dose 6.5 mg/kg, route intravenous; conditions: in vivo
[6] = Clearance in Sprague-Dawley rat at 6.5 mg/kg, iv; format: ADME, organism-based; parameters: dose 6.5 mg/kg, route intravenous; conditions: in vivo
[7] = Volume of distribution in Sprague-Dawley rat at 6.5 mg/kg, iv; format: ADME, organism-based; parameters: dose 6.5 mg/kg, route intravenous; conditions: in vivo
[8] = AUC (0 to t) in Sprague-Dawley rat at 6.5 mg/kg, iv co-treated with COMT inhibitor entacapone; format: ADME, organism-based; parameters: dose 6.5 mg/kg, route intravenous; conditions: plasma
[9] = AUC (0 to infinity) in Sprague-Dawley rat at 6.5 mg/kg, iv co-treated with COMT inhibitor entacapone; format: ADME, organism-based; parameters: time infinity, dose 6.5 mg/kg, route intravenous; conditions: plasma
[10] = Mean residence time (0 to t) in Sprague-Dawley rat at 6.5 mg/kg, iv co-treated with COMT inhibitor entacapone; format: ADME, organism-based; parameters: dose 6.5 mg/kg, route intravenous; conditions: in vivo
[11] = Mean residence time (0 to infinity) in Sprague-Dawley rat at 6.5 mg/kg, iv co-treated with COMT inhibitor entacapone; format: ADME, organism-based; parameters: dose 6.5 mg/kg, route intravenous; conditions: in vivo
[12] = Half life in Sprague-Dawley rat at 6.5 mg/kg, iv co-treated with COMT inhibitor entacapone; format: ADME, organism-based; parameters: dose 6.5 mg/kg, route intravenous; conditions: in vivo
[13] = Clearance in Sprague-Dawley rat at 6.5 mg/kg, iv co-treated with COMT inhibitor entacapone; format: ADME, organism-based; parameters: dose 6.5 mg/kg, route intravenous; conditions: in vivo
[14] = Volume of distribution in Sprague-Dawley rat at 6.5 mg/kg, iv co-treated with COMT inhibitor entacapone; format: ADME, organism-based; parameters: dose 6.5 mg/kg, route intravenous; conditions: in vivo
[15] = Drug excretion in Sprague-Dawley rat urine at 6.5 mg/kg, iv after 24 hrs; format: ADME, organism-based; parameters: dose 6.5 mg/kg, route intravenous; conditions: read-out: Drug excretion
[16] = Drug excretion in Sprague-Dawley rat urine at 6.5 mg/kg, iv after 24 hrs co-treated with COMT inhibitor entacapone; format: ADME, organism-based; parameters: dose 6.5 mg/kg, route intravenous; conditions: read-out: Drug excretion
[17] = Drug recovery in Sprague-Dawley rat urine assessed as retention time at 6.5 mg/kg, iv by reverse-phase HPLC method; format: ADME, organism-based; parameters: dose 6.5 mg/kg, route intravenous; conditions: in vivo
Liver [18] = test: Drug metabolism in Sprague-Dawley rat liver homogenate assessed as 3'-O-methylated luteolin at 20 uM after 20 to 60 mins; format: ADME, tissue-based; conditions: tissue homogenate
Liver [19] = test: Drug metabolism in Sprague-Dawley rat liver homogenate assessed as 4'-O-methylated luteolin at 20 uM after 20 to 60 mins; format: ADME, tissue-based; conditions: tissue homogenate
Kidney [20] = test: Drug metabolism in Sprague-Dawley rat kidney homogenate assessed as 3'-O-methylated luteolin at 20 uM after 20 to 60 mins; format: ADME, tissue-based; conditions: tissue homogenate
Kidney [21] = test: Drug metabolism in Sprague-Dawley rat kidney homogenate assessed as 4'-O-methylated luteolin at 20 uM after 20 to 60 mins; format: ADME, tissue-based; conditions: tissue homogenate
Lung [22] = test: Drug metabolism in Sprague-Dawley rat lung homogenate assessed as 3'-O-methylated luteolin at 20 uM after 20 to 60 mins; format: ADME, tissue-based; conditions: tissue homogenate
Lung [23] = test: Drug metabolism in Sprague-Dawley rat lung homogenate assessed as 4'-O-methylated luteolin at 20 uM after 20 to 60 mins; format: ADME, tissue-based; conditions: tissue homogenate
Small intestine [24] = test: Drug metabolism in Sprague-Dawley rat small intestine homogenate assessed as 3'-O-methylated luteolin at 20 uM after 20 to 60 mins; format: ADME, tissue-based; conditions: tissue homogenate
Small intestine [25] = test: Drug metabolism in Sprague-Dawley rat small intestine homogenate assessed as 4'-O-methylated luteolin at 20 uM after 20 to 60 mins; format: ADME, tissue-based; conditions: tissue homogenate
[26] = Drug metabolism in Sprague-Dawley rat erythrocytes homogenate assessed as 3'-O-methylated luteolin at 20 uM after 20 to 60 mins; format: ADME, cell-based; conditions: erythrocyte
[27] = Drug metabolism in Sprague-Dawley rat erythrocytes homogenate assessed as 4'-O-methylated luteolin at 20 uM after 20 to 60 mins; format: ADME, cell-based; conditions: erythrocyte
Liver [28] = test: Drug metabolism in Sprague-Dawley rat liver homogenate assessed as 3'-O-methylated luteolin at 20 uM after 20 to 60 mins in presence of COMT inhibitor entacapone; format: ADME, tissue-based; conditions: tissue homogenate
Liver [29] = test: Drug metabolism in Sprague-Dawley rat liver homogenate assessed as 4'-O-methylated luteolin at 20 uM after 20 to 60 mins in presence of COMT inhibitor entacapone; format: ADME, tissue-based; conditions: tissue homogenate
Kidney [30] = test: Drug metabolism in Sprague-Dawley rat kidney homogenate assessed as 3'-O-methylated luteolin at 20 uM after 20 to 60 mins in presence of COMT inhibitor entacapone; format: ADME, tissue-based; conditions: tissue homogenate
Kidney [31] = test: Drug metabolism in Sprague-Dawley rat kidney homogenate assessed as 4'-O-methylated luteolin at 20 uM after 20 to 60 mins in presence of COMT inhibitor entacapone; format: ADME, tissue-based; conditions: tissue homogenate
Lung [32] = test: Drug metabolism in Sprague-Dawley rat lung homogenate assessed as 3'-O-methylated luteolin at 20 uM after 20 to 60 mins in presence of COMT inhibitor entacapone; format: ADME, tissue-based; conditions: tissue homogenate
Lung [33] = test: Drug metabolism in Sprague-Dawley rat lung homogenate assessed as 4'-O-methylated luteolin at 20 uM after 20 to 60 mins in presence of COMT inhibitor entacapone; format: ADME, tissue-based; conditions: tissue homogenate
Small intestine [34] = test: Drug metabolism in Sprague-Dawley rat small intestine homogenate assessed as 3'-O-methylated luteolin at 20 uM after 20 to 60 mins in presence of COMT inhibitor entacapone; format: ADME, tissue-based; conditions: tissue homogenate
Small intestine [35] = test: Drug metabolism in Sprague-Dawley rat small intestine homogenate assessed as 4'-O-methylated luteolin at 20 uM after 20 to 60 mins in presence of COMT inhibitor entacapone; format: ADME, tissue-based; conditions: tissue homogenate
[36] = Drug metabolism in Sprague-Dawley rat erythrocytes homogenate assessed as 3'-O-methylated luteolin at 20 uM after 20 to 60 mins in presence of COMT inhibitor entacapone; format: ADME, cell-based; conditions: erythrocyte
[37] = Drug metabolism in Sprague-Dawley rat erythrocytes homogenate assessed as 4'-O-methylated luteolin at 20 uM after 20 to 60 mins in presence of COMT inhibitor entacapone; format: ADME, cell-based; conditions: erythrocyte
[38] = Apparent permeability in human Caco2 cells; format: ADME, cell-based; conditions: caco-2
[39] = Drug absorption in human Caco2 cells; format: ADME, cell-based; conditions: caco-2

`O=c1cc(-c2ccc(O)c(O)c2)oc2cc(O)cc(O)c12` [LUTEOLIN] showed an AUC(0-t) [1] of 7600 ng·h/mL, an AUC(0-inf) [2] of 8180 ng·h/mL and an MRT last [3] of 1.41 h. For the same compound, the MRT inf [4] was 2.32 h, the half-life [5] was 3.2 h and the clearance [6] was 13.4 mL/min/kg. It also gave a Vd [7] of 3.74 L/kg, an AUC(0-t) [8] of 11400 ng·h/mL and an AUC(0-inf) [9] of 12500 ng·h/mL. For the same compound, the MRT last [10] was 1.65 h, the MRT inf [11] was 2.68 h and the half-life [12] was 3.31 h. The clearance [13] was 8.95 mL/min/kg, the Vd [14] was 2.57 L/kg and the dose excreted at 24 h [15] was 5.12%. For the same compound, the dose excreted at 24 h [16] was 7.32%, the Retention_time [17] was 15.46 min and the Drug metabolism (Liver [18]) was “metabolite_detected”. For the same compound, the Drug metabolism (Liver [19]) was “metabolite_detected”, the Drug metabolism (Kidney [20]) was “metabolite_detected” and the Drug metabolism (Kidney [21]) was “metabolite_detected”. For the same compound, the Drug metabolism (Lung [22]) was “metabolite_detected”, the Drug metabolism (Lung [23]) was “metabolite_detected” and the Drug metabolism (Small intestine [24]) was “metabolite_detected”. The Drug metabolism (Small intestine [25]) was “metabolite_detected”, the Drug metabolism [26] was “metabolite_detected” and the Drug metabolism [27] was “metabolite_detected”. For the same compound, the Drug metabolism (Liver [28]) was “metabolite_not_detected”, the Drug metabolism (Liver [29]) was “metabolite_not_detected” and the Drug metabolism (Kidney [30]) was “metabolite_not_detected”. The Drug metabolism (Kidney [31]) was “metabolite_not_detected”, the Drug metabolism (Lung [32]) was “metabolite_not_detected” and the Drug metabolism (Lung [33]) was “metabolite_not_detected”. The Drug metabolism (Small intestine [34]) was “metabolite_not_detected”, the Drug metabolism (Small intestine [35]) was “metabolite_not_detected” and the Drug metabolism [36] was “metabolite_not_detected”. The Drug metabolism [37] was “metabolite_not_detected”, the Papp [38] was 5.8 ×10⁻⁶ cm/s and the Drug absorption [39] was 20%.
